According to paper PMC4460250, “Systems Pharmacology Dissecting Holistic Medicine for Treatment of Complex Diseases: An Example Using Cardiocerebrovascular Diseases Treated by TCM” (Evidence-based Complementary and Alternative Medicine : eCAM, 2015):

Assays:
[1] = in vivo; cited from earlier work
[2] = in vivo

| SMILES | HIA(Human Intestinal Absorption) [1] | Class(High: HIA value ≥0.7; Low: HIA value < 0.7) [2] |
| --- | --- | --- |
| COC(=O)C1=C(C#N)NC(C)=C(C(=O)OC(C)C)[C@H]1c1cccc([N+](=O)[O-])c1 [Nilvadipine(R)] | 1 | High (key: High: HIA value ≥0.7; Low: HIA value < 0.7) |
| C[C@H](CN(C)C)CN1c2ccccc2Sc2ccccc21 [Trimeprazine(R)] | 0.8 | High (key: High: HIA value ≥0.7; Low: HIA value < 0.7) |
| O=C1Nc2ccc(Cl)cc2C(c2ccccc2Cl)=N[C@@H]1O [Lorazepam(R)] | 0.95 | High (key: High: HIA value ≥0.7; Low: HIA value < 0.7) |
| CCCC[C@@H]1C(=O)N(c2ccccc2)N(c2ccc(O)cc2)C1=O [Oxyphenbutazone(R)] | 1 | High (key: High: HIA value ≥0.7; Low: HIA value < 0.7) |
| C[C@H](CN(C)C)CN1c2ccccc2CCc2ccccc21 [Trimipramine(R)] | 0.8 | High (key: High: HIA value ≥0.7; Low: HIA value < 0.7) |
| COC(=O)C1=C(C)NC(C)=C(C(=O)OCC(C)C)[C@H]1c1ccccc1[N+](=O)[O-] [Nisoldipine(S)] | 0.9 | High (key: High: HIA value ≥0.7; Low: HIA value < 0.7) |
| Cc1cc(C)nc(NS(=O)(=O)c2ccc(N)cc2)n1 [Sulfamethazine] | 0.95 | High (key: High: HIA value ≥0.7; Low: HIA value < 0.7) |
| C[C@H]1COc2c(N3CCN(C)CC3)c(F)cc3c(=O)c(C(=O)O)cn1c23 [Ofloxacin(S)] | 1 | High (key: High: HIA value ≥0.7; Low: HIA value < 0.7) |
| CN1C[C@H](C(=O)N[C@]2(C)O[C@@]3(O)[C@@H]4CCCN4C(=O)[C@H](Cc4ccccc4)N3C2=O)C=C2c3cccc4[nH]cc(c34)C[C@H]21 [Ergotamine] | 1 | High (key: High: HIA value ≥0.7; Low: HIA value < 0.7) |
| COC(=O)[C@H](c1ccccc1Cl)N1CCc2sccc2C1 [Clopidogrel(S)] | 0.5 | Low (key: High: HIA value ≥0.7; Low: HIA value < 0.7) |
| CCN(CC)[C@H](C)C(=O)c1ccccc1 [Diethylpropion(R)] | 0.95 | High (key: High: HIA value ≥0.7; Low: HIA value < 0.7) |
| CCC[C@H](C)C1(CC)C(=O)NC(=O)NC1=O [Pentobarbital(S)] | 1 | High (key: High: HIA value ≥0.7; Low: HIA value < 0.7) |
| COc1ccc(CCN(C)CCCN2CCc3cc(OC)c(OC)cc3CC2=O)cc1OC [Zatebradin] | 0.79 | High (key: High: HIA value ≥0.7; Low: HIA value < 0.7) |
| O=C1CN=C(c2ccccc2Cl)c2cc([N+](=O)[O-])ccc2N1 [Clonazepam] | 0.8 | High (key: High: HIA value ≥0.7; Low: HIA value < 0.7) |
| CCOC(=O)C1(c2ccccc2)CCC=CC1N(C)C (stereo not shown) [Tilidine] | 1 | High (key: High: HIA value ≥0.7; Low: HIA value < 0.7) |
| CCN(CC)CCN1C(=O)CN=C(c2ccccc2F)c2cc(Cl)ccc21 [Flurazepam] | 1 | High (key: High: HIA value ≥0.7; Low: HIA value < 0.7) |
| NCCC[C@](N)(C(=O)O)C(F)F [Eflornithine(S)] | 0.55 | Low (key: High: HIA value ≥0.7; Low: HIA value < 0.7) |
| CN(C)C(=O)Oc1cccc([N+](C)(C)C)c1 [Neostigmine] | 0.02 | Low (key: High: HIA value ≥0.7; Low: HIA value < 0.7) |

| SMILES | HIA(Human Intestinal Absorption) [1] | Class(High: HIA value ≥0.7; Low: HIA value < 0.7) [2] |
| --- | --- | --- |
| CN1CCN(C(=O)O[C@@H]2c3nccnc3C(=O)N2c2ccc(Cl)cn2)CC1 [Zopiclone(R)] | 0.98 | High (key: High: HIA value ≥0.7; Low: HIA value < 0.7) |
| COP(=O)(OC)O[C@H](c1ccc(Cl)cc1)P(=O)(OC)OC [Mifobate(S)] | 0.82 | High (key: High: HIA value ≥0.7; Low: HIA value < 0.7) |
| CC(C)(C)NCC(O)COc1nsnc1N1CCOCC1 (stereo in doubt) [Timolol(R)] | 0.95 | High (key: High: HIA value ≥0.7; Low: HIA value < 0.7) |
| CC(N)C(O)c1ccccc1 (stereo not shown) [Phenylpropanolamine] | 0.95 | High (key: High: HIA value ≥0.7; Low: HIA value < 0.7) |
| CC(C)NC[C@H](O)c1ccc(NS(C)(=O)=O)cc1 [Sotalol(R)] | 0.95 | High (key: High: HIA value ≥0.7; Low: HIA value < 0.7) |
| CC[C@@]1(c2ccc(N)cc2)CCC(=O)NC1=O [Aminoglutethimide(S)] | 1 | High (key: High: HIA value ≥0.7; Low: HIA value < 0.7) |
| CC[C@H](c1ccccc1)c1c(O)c2ccccc2oc1=O [Phenprocoumon(R)] | 0.95 | High (key: High: HIA value ≥0.7; Low: HIA value < 0.7) |
| C[C@H](CN1c2ccccc2Sc2ccccc21)N(C)C [Promethazine(R)] | 0.95 | High (key: High: HIA value ≥0.7; Low: HIA value < 0.7) |
| N=C(N)NC[C@H]1COC2(CCCCC2)O1 [Guanadrel(S)] | 0.8 | High (key: High: HIA value ≥0.7; Low: HIA value < 0.7) |
| CC(C)NC[C@H](O)c1ccc(O)c(O)c1 [Isoproterenol(R)] | 0.85 | High (key: High: HIA value ≥0.7; Low: HIA value < 0.7) |
| CC[C@@]1(c2cccc(O)c2)CCCCN(C)C1 [Meptazinol(S)] | 1 | High (key: High: HIA value ≥0.7; Low: HIA value < 0.7) |
| COc1cc2nc(N3CCN(C(=O)[C@@H]4CCCO4)CC3)nc(N)c2cc1OC [Terazosin(S)] | 0.91 | High (key: High: HIA value ≥0.7; Low: HIA value < 0.7) |
| COC(=O)C(c1ccccc1Cl)N1CCc2sccc2C1 (stereo in doubt) [Clopidogrel(R)] | 0.5 | Low (key: High: HIA value ≥0.7; Low: HIA value < 0.7) |
| CC(=O)NCCCS(=O)(=O)O [Acamprosate] | 0.11 | Low (key: High: HIA value ≥0.7; Low: HIA value < 0.7) |
| OC[C@@H](O)COc1ccc(Cl)cc1 [Chlorphenesin(R)] | 1 | High (key: High: HIA value ≥0.7; Low: HIA value < 0.7) |
| C=CCc1ccccc1OC[C@H](O)CNC(C)C [Alprenolol(R)] | 0.93 | High (key: High: HIA value ≥0.7; Low: HIA value < 0.7) |
| CCOC(=O)C1=C(C)NC(C)=C(C(=O)OC)[C@H]1c1cccc([N+](=O)[O-])c1 [Nitrendipine(R)] | 0.88 | High (key: High: HIA value ≥0.7; Low: HIA value < 0.7) |
